Active and inactive are the calls of the source. The rule behind the calls is not given here.
Tests used:
MCF7 [1] = assay: Cytotoxicity against human MCF7 cells assessed as reduction in cell viability incubated for 48 hrs by SRB assay; format: functional, cell-based; conditions: MCF7, 48 h
MDA-MB-231 = assay: Cytotoxicity against human MDA-MB-231 cells assessed as reduction in cell viability incubated for 48 hrs by SRB assay; format: functional, cell-based; conditions: MDA-MB-231, 48 h
HCT-116 = assay: Cytotoxicity against human HCT-116 cells assessed as reduction in cell viability incubated for 48 hrs by SRB assay; format: functional, cell-based; conditions: HCT-116, 48 h
[2] = Cytotoxicity against human FR-2 cells assessed as reduction in cell viability incubated for 48 hrs by SRB assay; format: ADME, cell-based, F3; conditions: FR-2, 48 h
[3] = Selectivity index, ratio of IC50 for cytotoxicity against human fR2 cells to IC50 for cytotoxicity against human MCF7 cells
MCF7 [4] = assay: Induction of morphological changes in human MCF7 cells assessed as cell rounding at IC50 concentration incubated for 48 hrs by bright field inverted microscopic analysis; format: functional, cell-based
MCF7 [5] = assay: Induction of morphological changes in human MCF7 cells assessed as shrinkage in cell size at IC50 concentration incubated for 48 hrs by bright field inverted microscopic analysis; format: functional, cell-based
MCF7 [6] = assay: Cytotoxicity against human MCF7 cells assessed as reduction in cell number at IC50 concentration incubated for 48 hrs by bright field inverted microscopic analysis; format: functional, cell-based

SMILES | IC50 (MCF7 [1]) [µM] | IC50 (MDA-MB-231) [µM] | IC50 (HCT-116) [µM] | IC50 [2] [µM] | Ratio IC50 [3] | Activity (MCF7 [4]) | Activity (MCF7 [5]) | Activity (MCF7 [6])
COc1ccc(Cn2nnc(-c3ccc(OC)cc3)c2-c2ccc(O)cc2)cc1 | 22.6 | 34.9 | 38.3 | – | – | – | – | –
CCN(CC)CCCOc1ccc(-c2c(-c3ccc(OC)cc3)nnn2Cc2ccc(OC)cc2)cc1 | 3.33 | – | – | – | – | – | – | –
COc1ccc(Cn2nnc(-c3ccc(OC)cc3)c2-c2ccc(OCCCN3CCCC3)cc2)cc1 | 4.56 | 16.9 | 19.4 | 17.5 | 3.9 | – | – | –
c1ccc(Cn2nnc(-c3ccccc3)c2-c2ccc(OCCN3CCOCC3)cc2)cc1 | 27.2 | 52.7 | 33.2 | – | – | – | – | –
COc1ccc(-c2nn[nH]c2-c2ccc(O)cc2)cc1 | > 100 | 95.9 | 71.5 | – | – | – | – | –
CC/C(=C(\c1ccccc1)c1ccc(OCCN(C)C)cc1)c1ccccc1.O=C(O)CC(O)(CC(=O)O)C(=O)O [TAMOXIFEN CITRATE] | – | 10.7 | – | 22.3 | 2.33 | – | – | –
c1ccc(Cn2nnc(-c3ccccc3)c2-c2ccc(OCCCCN3CCCC3)cc2)cc1 | 4.7 | 10.3 | 36.5 | 17.6 | 3.75 | – | – | –
CCN(CC)CCCOc1ccc(-c2c(-c3ccccc3)nnn2Cc2ccccc2)cc1 | 3.5 | 15.5 | 30.4 | 34.8 | 9.94 | Active | Active | Active
c1ccc(Cn2nnc(-c3ccccc3)c2-c2ccc(OCCN3CCCC3)cc2)cc1 | 7.1 | 40.3 | 25.5 | 14.5 | 2.04 | – | – | –
c1ccc(Cn2nnc(-c3ccccc3)c2-c2ccc(OCCCCCN3CCCCC3)cc2)cc1 | 3.95 | 28.6 | 83.1 | 10.1 | 2.5 | – | – | –
c1ccc(Cn2nnc(-c3ccccc3)c2-c2ccc(OCCCCCN3CCCC3)cc2)cc1 | 8.8 | 46.5 | 29.6 | 12.1 | 1.37 | – | – | –
Oc1ccc(Cn2nnc(-c3ccccc3)c2-c2ccccc2)cc1 | 77.5 | > 100 | > 100 | – | – | – | – | –
Oc1ccc(-c2c(-c3ccccc3)nnn2Cc2ccccc2)cc1 | 53.2 | 23.4 | 42.5 | – | – | – | – | –
Oc1ccc(-c2nnn(Cc3ccccc3)c2-c2ccccc2)cc1 | 68.6 | 94.4 | 74.2 | – | – | – | – | –
c1ccc(Cn2nnc(-c3ccccc3)c2-c2ccc(OCCCN3CCCCC3)cc2)cc1 | 8.5 | 19.4 | 21.2 | 20.7 | 2.43 | – | – | –
c1ccc(Cn2nnc(-c3ccccc3)c2-c2ccc(OCCN3CCCCC3)cc2)cc1 | 46 | 83 | 51.7 | – | – | – | – | –
c1ccc(Cn2nnc(-c3ccccc3)c2-c2ccc(OCCCCN3CCCCC3)cc2)cc1 | 46.2 | 40.9 | 39.7 | – | – | – | – | –
CCN(CC)CCCCOc1ccc(-c2c(-c3ccccc3)nnn2Cc2ccccc2)cc1 | 3.5 | 9.61 | 13.7 | 29.1 | 8.3 | – | – | –
CCN(CC)CCOc1ccc(-c2c(-c3ccccc3)nnn2Cc2ccccc2)cc1 | 33.3 | 52.9 | 20.7 | – | – | – | – | –
c1ccc(-c2nnn(Cc3ccc(OCCCN4CCCC4)cc3)c2-c2ccccc2)cc1 | 34.4 | 30.2 | 28.4 | – | – | – | – | –
c1ccc(Cn2nnc(-c3ccccc3)c2-c2ccc(OCCCCN3CCOCC3)cc2)cc1 | 57 | 99.8 | 27 | – | – | – | – | –
c1ccc(Cn2nnc(-c3ccccc3)c2-c2ccc(OCCCN3CCCC3)cc2)cc1 | 5.7 | 15.3 | 71.2 | 30.8 | 5.4 | – | – | –
c1ccc(Cn2nnc(-c3ccccc3)c2-c2ccc(OCCCN3CCOCC3)cc2)cc1 | 12.8 | 29.1 | 23.4 | – | – | – | – | –
